Test results reported in US6894046B2, “IL-5 inhibiting 6-azauracil derivatives” (Janssen Pharmaceutica N.V., priority 1998, dated 2005).
Counter-ions that a name gives are not always drawn.

Tested on: IL-5 production in human blood
Test: In vitro inhibition of IL-5 production in human blood (phytohemagglutinin-stimulated whole blood, ELISA)
Format: cell-based
Conditions: test dose 1×10^−6 M, phytohemagglutinin 2 μg/ml, 48 hours; for inhibition at 1 µM: read-out: % inh. (percentage inhibition of IL-5 production)
Protocol: EXAMPLE C.1: IN VITRO INHIBITION OF IL-5 PRODUCTION IN HUMAN BLOOD
Peripheral blood from healthy male donors was drawn into heparinized syringes (12.5 U heparin/ml). Blood samples were three-fold diluted in RMPI 1640 medium (Life Technologies, Belgium) supplemented with 2 mM L-glutamine, 100 U/ml penicillin and 100 μg/ml streptomycin, and 300 μl fractions were distributed in 24-well multidisc plates. Blood samples were preincubated (60 minutes at 37° C.) in a humidified 6% CO2-atmosphere with 100 μl of drug solvent (final concentration 0.02% dimethylsulfoxide in RPMI 1640) or with 100 μl of an appropriate dose of test compound before being stimulated by the addition of 100 μl of phytohemagglutinin HA17 (Murex, UK) at a final concentration of 2 μg/ml. After 48 hours, cell-free supernatant fluids were collected by centrifugation and stored at −70° C. until tested for the presence of IL-5.
IL-5 measurements were conducted as described in Van Wauwe et al. (1996, Inflamm Res, 45, 357-363) on page 358 using ELISA.
Table 6 lists the percentage inhibition of IL-5 production (column “% inh”) at a test dose of 1×10^−6 M, or in case the percentage inhibition is marked with an “*” 1×10^−5 M, for the compounds of the present invention.

Compound	inhibition at 1 µM	% inh. (percentage inhibition of IL-5 production)
CC(C)(c1noc(-c2ccccc2)n1)c1c(Cl)cc(-n2ncc(=O)[nH]c2=O)cc1Cl [Compound 88, 2-[3,5-dichloro-4-[1-methyl-1-(5-phenyl-1,2,4-oxadiazol-3-yl)ethyl]phenyl]-1,2,4-triazine-3,5(2H,4H)-dione]	94%	
CC(C)(c1noc(-c2ccccc2Cl)n1)c1c(Cl)cc(-n2ncc(=O)[nH]c2=O)cc1Cl [Compound 89]		84%
CC(C)(c1noc(-c2cccc(F)c2)n1)c1c(Cl)cc(-n2ncc(=O)[nH]c2=O)cc1Cl [Compound 90]		91%
Cc1cccc(-c2nc(C(C)(C)c3c(Cl)cc(-n4ncc(=O)[nH]c4=O)cc3Cl)no2)c1 [Compound 91]		81%
CC(C)(c1noc(-c2cccs2)n1)c1c(Cl)cc(-n2ncc(=O)[nH]c2=O)cc1Cl [Compound 92]		80%
CC(C)(c1noc(-c2cccc(Cl)c2)n1)c1c(Cl)cc(-n2ncc(=O)[nH]c2=O)cc1Cl [Compound 93]		84%
CN1CCN(Cc2ccccc2-c2nc(C(C)(C)c3c(Cl)cc(-n4ncc(=O)[nH]c4=O)cc3Cl)no2)CC1 [Compound 94, 2-[3,5-dichloro-4-[1-methyl-1-[5-[2-[(4-methyl-1-piperazinyl)methyl]phenyl]-1,2,4-oxadiazol-3-yl]ethyl]phenyl]-1,2,4-triazine-3,5(2H,4H)-dione trihydrochloride]	34%	
CC(C)(c1noc(-c2ccc(F)cc2)n1)c1c(Cl)cc(-n2ncc(=O)[nH]c2=O)cc1Cl [Compound 96]		82%
CC(C)(c1noc(-c2ccncc2)n1)c1c(Cl)cc(-n2ncc(=O)[nH]c2=O)cc1Cl [Compound 97, 2-[3,5-dichloro-4-[1-methyl-1-[5-(4-pyridinyl)-1,2,4-oxadiazol-3-yl]ethyl]phenyl]-1,2,4-triazine-3,5(2H,4H)-dione]	90%	
CC(C)(c1noc(-c2ccccn2)n1)c1c(Cl)cc(-n2ncc(=O)[nH]c2=O)cc1Cl [Compound 98]		58%
CC(C)(NC(=O)c1cccnc1)c1c(Cl)cc(-n2ncc(=O)[nH]c2=O)cc1Cl [Compound 101]		19%
Cc1ccc(-c2nc(C(C)(C)c3c(Cl)cc(-n4ncc(=O)[nH]c4=O)cc3Cl)sc2Br)s1 [Compound 111]		88%
CN1CCN(Cc2ccc(-c3csc(C(C)(C)c4c(Cl)cc(-n5ncc(=O)[nH]c5=O)cc4Cl)n3)s2)CC1 [Compound 112]		39%
CN1CCN(Cc2ccsc2-c2csc(C(C)(C)c3c(Cl)cc(-n4ncc(=O)[nH]c4=O)cc3Cl)n2)CC1.O [Compound 113]		28%
CC(C)(C)OC(=O)c1sc(C(C)(C)c2c(Cl)cc(-n3ncc(=O)[nH]c3=O)cc2Cl)nc1-c1ccccc1 [Compound 116]		89%
CC(C)(c1nc(-c2ccccc2)c(C(=O)O)s1)c1c(Cl)cc(-n2ncc(=O)[nH]c2=O)cc1Cl [Compound 117]		−7%
CCOC(=O)Cc1sc(C(C)(C)c2c(Cl)cc(-n3ncc(=O)[nH]c3=O)cc2Cl)nc1-c1cccs1 [Compound 118]		78%
CC(C)(C)OC(=O)c1sc(C(C)(C)c2c(Cl)cc(-n3ncc(=O)[nH]c3=O)cc2Cl)nc1-c1cccs1 [Compound 119]		93%

Compound	inhibition at 1 µM	% inh. (percentage inhibition of IL-5 production)
CC(C)(c1nc(-c2cccs2)c(C(=O)O)s1)c1c(Cl)cc(-n2ncc(=O)[nH]c2=O)cc1Cl [Compound 120]		8%
CC(C)(c1nc(-c2cccs2)c(CC(=O)O)s1)c1c(Cl)cc(-n2ncc(=O)[nH]c2=O)cc1Cl [Compound 121]		−3%
CC(C)OC(=O)c1sc(C(C)(C)c2c(Cl)cc(-n3ncc(=O)[nH]c3=O)cc2Cl)nc1-c1ccccc1 [Compound 122]		94%
CC(C)(c1noc(-c2cccnc2)n1)c1c(Cl)cc(-n2ncc(=O)[nH]c2=O)cc1Cl [Compound 124, 2-[3,5-dichloro-4-[1-methyl-1-[5-(3-pyridinyl)-1,2,4-oxadiazol-3-yl]ethyl]phenyl]-1,2,4-triazine-3,5(2H,4H)-dione]	86%	
Cc1ccc(-c2nc(C(C)(C)c3c(Cl)cc(-n4ncc(=O)[nH]c4=O)cc3Cl)no2)cc1 [Compound 125]		43%
CC(C)(c1noc(-c2cccc(CO)c2)n1)c1c(Cl)cc(-n2ncc(=O)[nH]c2=O)cc1Cl [Compound 127]		67%
COC(=O)c1cccc(-c2nc(C(C)(C)c3c(Cl)cc(-n4ncc(=O)[nH]c4=O)cc3Cl)no2)c1 [Compound 133]		55%
COC(=O)c1ccc(-c2nc(C(C)(C)c3c(Cl)cc(-n4ncc(=O)[nH]c4=O)cc3Cl)no2)cc1 [Compound 135]		11%
Cc1c(F)cccc1-c1nc(C(C)(C)c2c(Cl)cc(-n3ncc(=O)[nH]c3=O)cc2Cl)no1 [Compound 144]		90%
COC(=O)c1ccc(-c2nc(C(C)(C)c3c(Cl)cc(-n4ncc(=O)[nH]c4=O)cc3Cl)no2)nc1 [Compound 146]		4%
Cc1ncccc1-c1nc(C(C)(C)c2c(Cl)cc(-n3ncc(=O)[nH]c3=O)cc2Cl)no1 [Compound 150, 2-[3,5-dichloro-4-[1-methyl-1-[5-(2-methyl-3-pyridinyl)-1,2,4-oxadiazol-3-yl]ethyl]phenyl]-1,2,4-triazine-3,5(2H,4H)-dione]	73%	
Cc1ccnc(C)c1-c1nc(C(C)(C)c2c(Cl)cc(-n3ncc(=O)[nH]c3=O)cc2Cl)no1.ClCCl [Compound 151]		74%
CC(C)(c1noc(C2CCNCC2)n1)c1c(Cl)cc(-n2ncc(=O)[nH]c2=O)cc1Cl.Cl [Compound 152]		21%
CC(C)(c1noc(-c2ccccc2C(F)(F)F)n1)c1c(Cl)cc(-n2ncc(=O)[nH]c2=O)cc1Cl [Compound 153]		77%
CC(C)(c1noc(-c2ccccc2CO)n1)c1c(Cl)cc(-n2ncc(=O)[nH]c2=O)cc1Cl [Compound 155]		85%
CC(C)(c1noc(-c2ccccc2CC(=O)O)n1)c1c(Cl)cc(-n2ncc(=O)[nH]c2=O)cc1Cl [Compound 158]		3%
(α+β)-2-[3,5-dichloro-4-[1-[5-[3-[[tetrahydro-3,4,5-trihydroxy-6-hydroxymethyl)-2H-pyran-2H-pyran-2-yl]amino]phenyl]-4-phenyl-2-thiazolyl]-1-methylethyl]phenyl]-1,2,4-triazine-3,5(2H,4H)-dione 2-propanolate(1:1) [Compound 64]		86%
